From US20220143184A1, “MITOCHONDRION/RIBONUCLEIC ACID-TARGETED AND MIGRATABLE PHOTOSENSITIZED PROBE AND APPLICATION THEREOF” (SHENZHEN INSTITUTES OF ADVANCED TECHNOLOGY, priority 2019, published 2022) come the findings set out here.

Series [1] deals with ribonucleic acid in the fixed cells. Kind of series: DNase and RNase digestion experiments in fixed HeLa cells (Example 4). Format: cell-based. To be noted: 50 μg/mL RNase 2 h, 10 μM probe 30 min. As to the method: Preparation of fixed cells: firstly, the cover glasses (slides) covered with HeLa cells prepared in Example 2 were soaked in a 4% paraformaldehyde solution for 30 min, and then permeated with a 0.5% Triton X-100 at room temperature for 2 min to prepare fixed cells for staining.
Three groups of the above fixed cells were taken, in which, two groups were added with a 2 U/mL RNase-free DNase and a 50 μg/mL DNase-free RNase for digestion in the incubator for 2 h individually.
The stained slides were observed under a wide-field fluorescence microscope to record the stained regions, fluorescence distribution, and intensity changes in the cells.

The test system of a further series is ribonucleic acid. Kind of series: Recognition of ribonucleic acid and deoxyribonucleic acid in solution, absorption/fluorescence spectra (Example 5). The format is binding. The note with it: 10 μM probe. As to the method: A probe solution at concentration of 10 μM was mixed with a 120 μg/mL ribonucleic acid/deoxyribonucleic acid in PBS for 5 min, respectively, and then ultraviolet-visible absorption spectra and the fluorescence spectra under excitation at 488 nm were measured.

Series [2] concerns HeLa cells. The experiment in a line: Reactive oxygen species in HeLa cells before and after photodynamic therapy, DCFH-DA (Example 9). The format is cell-based. To be noted: 10 μM probe, 10 μM DCFH-DA, mercury lamp 510-560 nm, 3 min. As to the method:
The glass-bottom cell culture dishes covered with HeLa cells prepared in Example 2 were washed three times with PBS, then incubated with 10 μM DCFH-DA in a CO2 incubator in darkness for 30 min. […] The stained cells were observed under a confocal laser scanning microscope, and the fluorescence distribution and intensity changes in the cells before and after the photodynamic therapy (irradiated with mercury lamp at 510-560 nm) were recorded.

In series [3] the test system is HeLa cells. Kind of series: Mitochondrial membrane potential of HeLa cells, JC-10 (Example 11). The format is cell-based. The note with it: 10 μM probe, mercury lamp 510-560 nm. As to the method: The cells were observed under a confocal laser scanning microscope, and the fluorescence distribution and intensity changes in the cells before and after photodynamic therapy (irradiated by mercury lamp at 510-560 nm) were recorded.

For series [4], the system named is HeLa cells. Kind of series: Flow cytometry fluorescence intensity of HeLa cells before and after photodynamic therapy (Example 15). Format: cell-based. To be noted: 10 μM 30 min, xenon lamp white light 5 min. As to the method:
Three groups of HeLa cells prepared in Example 2 were washed three times with PBS. […] The three groups of cells were digested in darkness and dispersed in PBS, and the number of cells and their fluorescence intensities are recorded and analyzed by flow cytometry was.
(A flow cytometer gives signals particle by particle.)

The test system of series [5] is HeLa cells. Kind of series: Dark toxicity to HeLa cells, MTT method (Example 16). Format: cell-based. To be noted: 0-20 μM. As to the method: The HeLa cells prepared in Example 2 were incubated in a 96-well plate with 1×10^4 cells per well. […] The cell viability was determined by the MTT method to determine the dark toxicity of the probe.
The mark [6] stands for this setting: 120 μg/mL RNA in PBS, 5 min, excitation 488 nm.

For `COc1ccc2[nH]cc(/C=C/c3cc[n+](C)c4ccccc34)c2c1.[I-]` [photosensitized probe 1, (E)-4-(2-(5-methoxy-1H-indole-3-)vinyl)-1-methylquinolinium iodide], the “fluorescence of the cells treated with RNase versus control group” value in series [1] is on record as “much weaker than that of the control group”. In the series with ribonucleic acid (setting [6]), the “fluorescence emission peak after interacting with ribonucleic acid” value is recorded as “around 600 nm” and the “increase of fluorescence intensity in RNA solution compared with the probe itself” value is recorded as “approximately 40 times”. Besides, in the series with ribonucleic acid (120 μg/mL RNA or DNA in PBS), the “fluorescence with RNA compared with deoxyribonucleic acid” value is recorded as “significantly stronger than the fluorescence after binding with deoxyribonucleic acid”. Further, the “intensity of green fluorescence of DCFH-DA (reactive oxygen species level in the cells) after irradiation” value with HeLa cells [2] is recorded as “increases remarkably”. Also, the “mitochondria membrane potential after photodynamic therapy (JC-10 aggregates fluorescence)” value in the series on HeLa cells [3] is reported as “significantly reduced”. Moreover, the “fluorescence intensity of the cells after photodynamic therapy versus group without photodynamic therapy” value with HeLa cells [4] was “enhanced significantly”. Further, in the series on HeLa cells [5] (24 h), the dark toxicity result is “very low and negligible”. Besides, in the series with HeLa cells [5] (incubation 24 h, darkness), the “cell viability in darkness” value is given as around 100%.
